Here are results for 15 molecules from ChEMBL document CHEMBL5291721, “A preclinical secondary pharmacology resource illuminates target-adverse drug reaction associations of marketed drugs” (Nat Commun, 2023).

One experiment concerns the target Bile salt export pump (Homo sapiens, UniProt O95342). Format: functional.
Experiment [1] addresses T1, Alpha-2A adrenergic receptor (Homo sapiens, UniProt P08913).
T1 sequence (P08913 whole entry): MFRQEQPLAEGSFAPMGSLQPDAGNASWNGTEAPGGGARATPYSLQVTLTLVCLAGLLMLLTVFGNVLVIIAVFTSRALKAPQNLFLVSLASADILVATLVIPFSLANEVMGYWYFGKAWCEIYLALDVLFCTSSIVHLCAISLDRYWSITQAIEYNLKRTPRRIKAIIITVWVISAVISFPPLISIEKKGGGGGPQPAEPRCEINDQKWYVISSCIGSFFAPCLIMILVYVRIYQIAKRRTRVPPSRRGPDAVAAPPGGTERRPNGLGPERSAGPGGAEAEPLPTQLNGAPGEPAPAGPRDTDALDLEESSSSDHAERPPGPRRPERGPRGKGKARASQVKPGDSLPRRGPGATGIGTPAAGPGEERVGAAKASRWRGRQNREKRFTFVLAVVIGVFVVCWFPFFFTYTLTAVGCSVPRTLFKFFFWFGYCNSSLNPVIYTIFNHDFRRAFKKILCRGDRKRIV
Type of experiment: functional, cell-based.

For experiment [2], the target named is Growth hormone secretagogue receptor type 1 (Homo sapiens, UniProt Q92847).
Experiment [3] deals with T2, 5-hydroxytryptamine receptor 1A (Homo sapiens, UniProt P08908).
T2 sequence (P08908 whole entry): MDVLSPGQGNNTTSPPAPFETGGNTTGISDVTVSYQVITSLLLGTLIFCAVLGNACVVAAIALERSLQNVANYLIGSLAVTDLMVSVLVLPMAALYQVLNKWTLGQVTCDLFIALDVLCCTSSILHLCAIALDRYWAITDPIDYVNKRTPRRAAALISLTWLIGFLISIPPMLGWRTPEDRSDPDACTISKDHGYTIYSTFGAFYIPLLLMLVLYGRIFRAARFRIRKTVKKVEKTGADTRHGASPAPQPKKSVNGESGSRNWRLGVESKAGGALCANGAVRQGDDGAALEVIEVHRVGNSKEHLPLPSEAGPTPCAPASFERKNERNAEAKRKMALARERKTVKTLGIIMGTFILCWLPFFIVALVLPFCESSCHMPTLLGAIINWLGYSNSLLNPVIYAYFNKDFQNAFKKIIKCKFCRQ
Format: functional, cell-based.

The target of experiment [4] is T2, 5-hydroxytryptamine receptor 1A. Format: functional, cell-based. The source holds these as a separate data set.
Experiment [5] has as its target T3, Progesterone receptor (Homo sapiens, UniProt P06401).
T3 sequence (P06401 whole entry): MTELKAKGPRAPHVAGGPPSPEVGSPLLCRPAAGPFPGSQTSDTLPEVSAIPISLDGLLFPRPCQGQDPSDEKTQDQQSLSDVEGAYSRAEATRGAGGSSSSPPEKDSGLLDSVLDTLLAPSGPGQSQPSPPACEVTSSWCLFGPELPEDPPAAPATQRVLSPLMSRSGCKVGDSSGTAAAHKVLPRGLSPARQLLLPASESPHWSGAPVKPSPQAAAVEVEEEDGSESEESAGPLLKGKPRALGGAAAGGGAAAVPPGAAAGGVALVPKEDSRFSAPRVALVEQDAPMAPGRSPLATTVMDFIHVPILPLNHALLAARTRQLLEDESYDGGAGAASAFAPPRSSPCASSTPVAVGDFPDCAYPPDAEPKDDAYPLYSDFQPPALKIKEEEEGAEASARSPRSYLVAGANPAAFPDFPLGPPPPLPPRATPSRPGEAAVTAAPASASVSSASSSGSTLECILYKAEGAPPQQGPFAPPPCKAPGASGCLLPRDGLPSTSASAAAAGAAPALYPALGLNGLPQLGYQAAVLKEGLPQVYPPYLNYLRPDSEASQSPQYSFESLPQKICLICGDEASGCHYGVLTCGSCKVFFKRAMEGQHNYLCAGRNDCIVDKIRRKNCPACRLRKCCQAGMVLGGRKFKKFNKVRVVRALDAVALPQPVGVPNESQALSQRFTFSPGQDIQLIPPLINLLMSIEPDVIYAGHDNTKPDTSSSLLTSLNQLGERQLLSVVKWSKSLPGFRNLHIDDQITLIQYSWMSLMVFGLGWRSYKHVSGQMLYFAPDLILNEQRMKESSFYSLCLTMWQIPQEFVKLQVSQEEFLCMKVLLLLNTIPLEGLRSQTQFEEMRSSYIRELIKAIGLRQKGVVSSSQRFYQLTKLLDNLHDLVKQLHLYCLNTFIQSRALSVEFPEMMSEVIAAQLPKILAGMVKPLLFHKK
Format: functional.

In experiment [6] the target is T3, Progesterone receptor. Type of experiment: functional. The source holds these as a separate data set.
Experiment [7] concerns the target Sodium-dependent dopamine transporter (Homo sapiens, UniProt Q01959).
Further: assay procedure not described here.

Chain of Sodium-dependent dopamine transporter (Q01959 whole entry): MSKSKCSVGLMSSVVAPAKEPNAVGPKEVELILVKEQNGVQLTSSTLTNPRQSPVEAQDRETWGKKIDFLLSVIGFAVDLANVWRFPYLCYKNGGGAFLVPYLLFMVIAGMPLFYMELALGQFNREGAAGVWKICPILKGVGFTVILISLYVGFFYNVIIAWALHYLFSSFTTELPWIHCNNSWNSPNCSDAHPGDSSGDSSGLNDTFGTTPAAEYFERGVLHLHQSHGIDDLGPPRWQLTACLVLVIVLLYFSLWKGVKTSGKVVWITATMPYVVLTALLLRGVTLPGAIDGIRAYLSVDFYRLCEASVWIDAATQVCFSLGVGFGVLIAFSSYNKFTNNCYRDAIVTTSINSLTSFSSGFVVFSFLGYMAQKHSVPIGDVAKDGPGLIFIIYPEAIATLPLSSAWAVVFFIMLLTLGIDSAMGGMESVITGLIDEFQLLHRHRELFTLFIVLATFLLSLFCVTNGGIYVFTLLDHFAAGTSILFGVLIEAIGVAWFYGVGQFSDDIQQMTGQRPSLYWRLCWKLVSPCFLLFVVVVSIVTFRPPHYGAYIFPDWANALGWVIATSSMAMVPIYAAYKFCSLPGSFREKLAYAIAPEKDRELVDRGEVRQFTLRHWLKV
Chain of Growth hormone secretagogue receptor type 1 (Q92847 whole entry): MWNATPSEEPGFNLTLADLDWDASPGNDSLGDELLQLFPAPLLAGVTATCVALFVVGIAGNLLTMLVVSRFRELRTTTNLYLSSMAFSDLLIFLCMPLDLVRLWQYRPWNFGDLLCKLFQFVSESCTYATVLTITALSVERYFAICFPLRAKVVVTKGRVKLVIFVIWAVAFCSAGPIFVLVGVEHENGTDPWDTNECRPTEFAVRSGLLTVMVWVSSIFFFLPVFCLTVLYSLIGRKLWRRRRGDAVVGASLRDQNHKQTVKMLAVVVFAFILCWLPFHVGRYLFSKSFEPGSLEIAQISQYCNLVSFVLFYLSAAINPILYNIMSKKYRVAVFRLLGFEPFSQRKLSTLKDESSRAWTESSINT
Chain of Bile salt export pump (O95342 whole entry): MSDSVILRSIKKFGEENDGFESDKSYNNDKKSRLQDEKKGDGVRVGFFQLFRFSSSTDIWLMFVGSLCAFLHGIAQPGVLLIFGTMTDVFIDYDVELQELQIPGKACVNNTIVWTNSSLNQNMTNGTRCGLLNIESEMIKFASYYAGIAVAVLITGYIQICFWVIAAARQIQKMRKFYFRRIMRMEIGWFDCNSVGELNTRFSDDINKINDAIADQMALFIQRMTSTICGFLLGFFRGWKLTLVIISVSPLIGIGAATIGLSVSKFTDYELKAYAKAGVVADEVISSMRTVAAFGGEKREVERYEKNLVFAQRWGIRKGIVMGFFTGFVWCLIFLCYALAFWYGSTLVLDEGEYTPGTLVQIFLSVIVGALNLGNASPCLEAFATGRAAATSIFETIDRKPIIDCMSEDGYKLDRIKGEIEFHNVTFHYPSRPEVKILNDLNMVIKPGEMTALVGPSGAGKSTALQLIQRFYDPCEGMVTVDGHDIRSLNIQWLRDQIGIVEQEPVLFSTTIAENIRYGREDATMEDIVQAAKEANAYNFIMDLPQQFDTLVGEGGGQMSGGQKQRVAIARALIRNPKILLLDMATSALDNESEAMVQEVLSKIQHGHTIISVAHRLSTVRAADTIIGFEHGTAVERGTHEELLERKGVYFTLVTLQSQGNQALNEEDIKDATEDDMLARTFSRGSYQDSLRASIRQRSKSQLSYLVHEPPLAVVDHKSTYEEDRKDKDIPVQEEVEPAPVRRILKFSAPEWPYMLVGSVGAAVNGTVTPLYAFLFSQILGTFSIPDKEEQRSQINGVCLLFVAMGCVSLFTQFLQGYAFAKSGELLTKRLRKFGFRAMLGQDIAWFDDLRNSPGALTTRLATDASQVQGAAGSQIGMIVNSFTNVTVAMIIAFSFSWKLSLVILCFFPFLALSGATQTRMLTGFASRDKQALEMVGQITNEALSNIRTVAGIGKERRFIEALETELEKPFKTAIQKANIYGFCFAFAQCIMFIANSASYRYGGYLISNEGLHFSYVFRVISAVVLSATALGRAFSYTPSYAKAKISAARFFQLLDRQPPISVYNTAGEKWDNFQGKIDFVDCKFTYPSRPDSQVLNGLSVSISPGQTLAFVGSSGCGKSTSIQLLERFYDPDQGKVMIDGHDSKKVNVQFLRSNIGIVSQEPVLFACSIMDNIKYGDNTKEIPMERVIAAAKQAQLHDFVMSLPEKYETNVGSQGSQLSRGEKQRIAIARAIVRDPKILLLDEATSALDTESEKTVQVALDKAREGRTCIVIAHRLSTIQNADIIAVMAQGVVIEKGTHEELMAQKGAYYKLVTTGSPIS

On to `CCOc1nc2cccc(C(=O)O)c2n1Cc1ccc(-c2ccccc2-c2nnn[nH]2)cc1`, for which the AC50 (usually the midpoint of the concentration-response curve, whichever way the signal moves) on Bile salt export pump was 100 µM; in experiment [1], over 30 µM; in experiment [2], over 30 µM; in experiment [3], over 30 µM; in experiment [4], over 30 µM; at Progesterone receptor [5], over 30 µM. The AC50 (at Progesterone receptor [6]; in experiment [7]) was over 30 µM throughout.
For `CCCc1nc2c(C)cc(-c3nc4ccccc4n3C)cc2n1Cc1ccc(-c2ccccc2C(=O)O)cc1`, the AC50 at Bile salt export pump was 5 µM; in experiment [1], over 30 µM; in experiment [2], over 30 µM; in experiment [3], over 30 µM; in experiment [4] it was over 30 µM; at Progesterone receptor [5], over 30 µM. Further, the concentration at half-maximal activity (AC50) (at Progesterone receptor [6]; in experiment [7]) was over 30 µM each time.
Consider `CCOc1cc([C@@H](CS(C)(=O)=O)N2C(=O)c3cccc(NC(C)=O)c3C2=O)ccc1OC`, for which the concentration at half-maximal activity (AC50) at Bile salt export pump is 139 µM; in experiment [1] it was over 30 µM; in experiment [2], over 30 µM; in experiment [3], over 30 µM; in experiment [4] it was over 30 µM; on Progesterone receptor [5], over 30 µM. The AC50 (at Progesterone receptor [6]; in experiment [7]) was over 30 µM in each case.
With `CC(=O)Nc1ccc(CC(=O)O)cc1` [ACTARIT], the AC50 at Bile salt export pump was over 300 µM; in experiment [1], over 30 µM; in experiment [2], over 30 µM; in experiment [3] it was over 30 µM; in experiment [4], over 30 µM; on Progesterone receptor [5], over 30 µM. The AC50 (at Progesterone receptor [6]; in experiment [7]) was over 30 µM in each case.
Turning to `CC(C(=O)O)c1ccc2oc(-c3ccc(Cl)cc3)nc2c1` (stereo not given) [BENOXAPROFEN], the AC50 is 120 µM at Bile salt export pump; over 30 µM in experiment [1]; over 30 µM in experiment [2]; over 30 µM in experiment [3]; over 30 µM in experiment [4]; over 30 µM on Progesterone receptor [5]. Further, the AC50 (on Progesterone receptor [6]; in experiment [7]) was over 30 µM throughout.
`CC1(C)S[C@@H]2[C@H](NC(=O)C(C(=O)O)c3ccccc3)C(=O)N2[C@H]1C(=O)O` (stereo not given in full) [CARBENICILLIN]: the AC50 at Bile salt export pump is 210 µM; in experiment [1], over 30 µM; in experiment [2], over 30 µM; in experiment [3], over 30 µM; in experiment [4] it was over 30 µM; at Progesterone receptor [5] it was over 30 µM. The AC50 (at Progesterone receptor [6]; in experiment [7]) was over 30 µM each time.
As for `Cc1nnc(SCC2=C(C(=O)O)N3C(=O)[C@@H](NC(=O)Cn4cnnn4)[C@H]3SC2)s1` [CEFAZOLIN], the AC50 (on Bile salt export pump; in experiment [1]; in experiment [2]; in experiment [3]; in experiment [4]; at Progesterone receptor [5]) was over 300 µM throughout. Also, the AC50 (on Progesterone receptor [6]; in experiment [7]) was over 300 µM each time.
For the molecule `CC=CC1=C(C(=O)O)N2C(=O)[C@@H](NC(=O)[C@H](N)c3ccc(O)cc3)[C@H]2SC1` [CEFPROZIL], the AC50 at Bile salt export pump was over 300 µM; in experiment [1] it was over 30 µM; in experiment [2], over 30 µM; in experiment [3] it was over 30 µM; in experiment [4], over 30 µM; at Progesterone receptor [5], over 30 µM. Besides, the AC50 (at Progesterone receptor [6]; in experiment [7]) was over 30 µM throughout.
`Cc1nc(Nc2ncc(C(=O)Nc3c(C)cccc3Cl)s2)cc(N2CCN(CCO)CC2)n1` [DASATINIB]: the AC50 was 22 µM on Bile salt export pump; over 30 µM in experiment [1]; over 30 µM in experiment [2]; over 30 µM in experiment [3]; over 30 µM in experiment [4]; over 30 µM at Progesterone receptor [5]. Also, the results for the AC50 (on Progesterone receptor [6]; in experiment [7]) were over 30 µM and 25.3 µM, respectively.
As for `CC(C)Cc1ccc([C@H](C)C(=O)O)cc1` [DEXIBUPROFEN], the AC50 at Bile salt export pump was 188 µM; in experiment [1], over 30 µM; in experiment [2], over 30 µM; in experiment [3], over 30 µM; in experiment [4] it was over 30 µM; on Progesterone receptor [5], over 30 µM. Further, the AC50 (on Progesterone receptor [6]; in experiment [7]) was over 30 µM throughout.
As for `Cc1onc(-c2c(F)cccc2Cl)c1C(=O)N[C@@H]1C(=O)N2[C@@H]1SC(C)(C)[C@@H]2C(=O)O` [FLOXACILLIN], the AC50 was 50 µM on Bile salt export pump; over 30 µM in experiment [1]; over 30 µM in experiment [2]; over 30 µM in experiment [3]; over 30 µM in experiment [4]; over 30 µM on Progesterone receptor [5]. Further, the concentration at half-maximal activity (AC50) (on Progesterone receptor [6]; in experiment [7]) was over 30 µM each time.
`COc1cc(C(C)=O)ccc1OCCCN1CCC(c2noc3cc(F)ccc23)CC1` [ILOPERIDONE]: the AC50 was 40 µM at Bile salt export pump; over 30 µM in experiment [1]; over 30 µM in experiment [2]; over 30 µM in experiment [3]; 0.055 µM in experiment [4]; over 30 µM at Progesterone receptor [5]. Further, the values for the AC50 (at Progesterone receptor [6]; in experiment [7]) were over 30 µM and 5.95 µM, respectively.
`CNC(=C[N+](=O)[O-])NCCSCc1csc(CN(C)C)n1` [NIZATIDINE]: the AC50 at Bile salt export pump is over 300 µM; in experiment [1], over 10 µM; in experiment [2] it was over 10 µM; in experiment [3] it was over 10 µM; in experiment [4], over 10 µM; at Progesterone receptor [5], over 10 µM. Besides, the AC50 (on Progesterone receptor [6]; in experiment [7]) was over 10 µM each time.
`CCCc1cc(=O)[nH]c(=S)[nH]1` [PROPYLTHIOURACIL]: the AC50 at Bile salt export pump is over 300 µM; in experiment [1], over 10 µM; in experiment [2], over 10 µM; in experiment [3], over 10 µM; in experiment [4], over 10 µM; on Progesterone receptor [5], over 10 µM. In addition, the AC50 (on Progesterone receptor [6]; in experiment [7]) was over 10 µM throughout.
With `S=P(N1CC1)(N1CC1)N1CC1` [THIOTEPA], the half-maximal activity concentration (AC50) at Bile salt export pump is 83 µM; in experiment [1], over 30 µM; in experiment [2] it was over 30 µM; in experiment [3] it was over 10 µM; in experiment [4] it was over 10 µM; at Progesterone receptor [5] it was over 30 µM. For the same molecule, the results for the AC50 (on Progesterone receptor [6]; in experiment [7]) were over 30 µM and 27 µM, respectively.
